{"source": "patent US11879137B2", "about": "“Treatment of type 1 diabetes and autoimmune diseases or disorders” (THE CHILDREN'S MEDICAL CENTER CORPORATION, priority 2017, dated 2024)", "system": "CD34+ cells", "experiment": "Transwell migration assay toward SDF-1", "assay_type": "cell-based, human", "settings": "SDF-1, 2 hours", "protocol": "Migration assay. Transwell migration assays were performed on PGE2-modulated HSPCs compared to unmodulated HSPCs in the presence of 0 to 50 ng/ml SDF-1 (R&D Systems, Minneapolis, MN). In brief, cells were suspended in 0.5% BSA Phenol Red-Free RPMI and plated in the upper chambers of an HTS-Transwell-96-well permeable support plate (Corning, Acton, MA) and incubated at 37° C. in 5% CO2 for 2 hours. After 2 hours incubation, migrated cells were counted using BD TruCount (BD Biosciences) by flow cytometry.\nProstaglandin library screening. PGE2 has been described as a small molecule known to enhance the homing and engraftment of HSPCs. It was therefore sought to screen all known types of prostaglandins using the Prostaglandin Screening Library II, which contains 64 small molecules. Each small molecule contained in the library was first screened for its capacity to upregulate PD-L1 in human CD34+ cells isolated from T1D patients (FIG. 17A-17B). CD34+ cells isolated from T1D patients were cultured in StemSpan SFEMII and pulsed with each PG (prostaglandin) small molecule contained in the aforementioned library at a concentration of 10 μM at 24 and 48h. Using FACS analysis, the MFI (mean fluorescence intensity) of PD-L1 expression was calculated following treatment with each small molecule used to modulate CD34+ cells as compared to untreated/unmodulated CD34+ cells (FIG. 17B). […]"}
{"compound": "CCCCC[C@H](O)/C=C/[C@H]1[C@H](O)CC(=O)[C@@H]1C/C=C\\CCCC(=O)O", "note": "[PGE2, prostaglandin E2]", "values": [{"measurement": "homing potential in migration assay", "value": "substantial increase"}]}
